From patent US20250163054A1, “SUBSTITUTED BICYCLIC HETEROARYL COMPOUNDS USEFUL AS INHIBITORS OF TLR9” (Bristol-Myers Squibb Company, priority 2022, published 2025)

Experiments:
Format in all cases: cell-based
[1] = target: T1, human TLR8 (Homo sapiens, UniProt Q9NR97); test: TLR7/8/9 Inhibition Reporter Assays (TLR8); conditions: HEK-Blue cells overexpressing human TLR8, SEAP reporter, stimulated with TLR8 ligand R848
T1 construct: host or cells: HEK-Blue cells (HEK293-derived reporter line)
T1 sequence (Q9NR97 27-1041): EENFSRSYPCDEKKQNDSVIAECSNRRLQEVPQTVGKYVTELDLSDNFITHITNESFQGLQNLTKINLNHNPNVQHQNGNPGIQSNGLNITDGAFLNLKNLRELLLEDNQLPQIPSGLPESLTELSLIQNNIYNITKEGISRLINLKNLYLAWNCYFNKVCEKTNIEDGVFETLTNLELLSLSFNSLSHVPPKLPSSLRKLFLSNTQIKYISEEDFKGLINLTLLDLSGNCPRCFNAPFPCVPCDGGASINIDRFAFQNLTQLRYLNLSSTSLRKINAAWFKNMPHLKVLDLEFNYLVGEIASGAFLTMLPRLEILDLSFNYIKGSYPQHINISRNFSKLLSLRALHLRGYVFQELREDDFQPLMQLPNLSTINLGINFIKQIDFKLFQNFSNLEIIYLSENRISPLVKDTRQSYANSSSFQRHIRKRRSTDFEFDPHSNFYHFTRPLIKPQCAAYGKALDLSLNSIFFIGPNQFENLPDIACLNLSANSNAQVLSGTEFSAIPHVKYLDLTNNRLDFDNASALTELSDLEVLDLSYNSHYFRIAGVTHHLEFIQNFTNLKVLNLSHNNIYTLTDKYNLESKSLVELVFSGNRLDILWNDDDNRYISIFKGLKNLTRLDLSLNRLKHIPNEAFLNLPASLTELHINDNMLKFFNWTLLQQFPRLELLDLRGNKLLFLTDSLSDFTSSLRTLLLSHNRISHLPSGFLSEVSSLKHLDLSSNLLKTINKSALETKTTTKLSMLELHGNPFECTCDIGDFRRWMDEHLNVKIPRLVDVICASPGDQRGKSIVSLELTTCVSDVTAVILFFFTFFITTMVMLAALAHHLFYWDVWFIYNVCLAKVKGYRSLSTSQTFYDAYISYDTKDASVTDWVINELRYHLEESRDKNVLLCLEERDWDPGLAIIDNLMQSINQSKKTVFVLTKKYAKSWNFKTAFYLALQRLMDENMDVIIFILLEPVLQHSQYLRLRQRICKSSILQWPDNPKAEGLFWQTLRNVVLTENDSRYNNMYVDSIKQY
Summary of the method: (§1)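 HEK-Blue cells overexpressing human TLR7, TLR8 or TLR9 with NF-κB/AP-1-driven SEAP reporter, pre-treated 60 min with compound ([…]). Stimulated with […] (TLR7), […] (TLR8) or ODN2006 200 nM (TLR9), then 22 h at 37° C; SEAP measured, % inhibition relative to agonist-plus-DMSO and known-inhibitor wells.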

[2] = target: T2, human TLR9 (Homo sapiens, UniProt Q9NR96); test: TLR7/8/9 Inhibition Reporter Assays (TLR9); conditions: HEK-Blue cells overexpressing human TLR9, SEAP reporter, stimulated with TLR9 ligand ODN2006
T2 construct: host or cells: HEK-Blue cells (HEK293-derived reporter line)
T2 sequence (Q9NR96 26-1032): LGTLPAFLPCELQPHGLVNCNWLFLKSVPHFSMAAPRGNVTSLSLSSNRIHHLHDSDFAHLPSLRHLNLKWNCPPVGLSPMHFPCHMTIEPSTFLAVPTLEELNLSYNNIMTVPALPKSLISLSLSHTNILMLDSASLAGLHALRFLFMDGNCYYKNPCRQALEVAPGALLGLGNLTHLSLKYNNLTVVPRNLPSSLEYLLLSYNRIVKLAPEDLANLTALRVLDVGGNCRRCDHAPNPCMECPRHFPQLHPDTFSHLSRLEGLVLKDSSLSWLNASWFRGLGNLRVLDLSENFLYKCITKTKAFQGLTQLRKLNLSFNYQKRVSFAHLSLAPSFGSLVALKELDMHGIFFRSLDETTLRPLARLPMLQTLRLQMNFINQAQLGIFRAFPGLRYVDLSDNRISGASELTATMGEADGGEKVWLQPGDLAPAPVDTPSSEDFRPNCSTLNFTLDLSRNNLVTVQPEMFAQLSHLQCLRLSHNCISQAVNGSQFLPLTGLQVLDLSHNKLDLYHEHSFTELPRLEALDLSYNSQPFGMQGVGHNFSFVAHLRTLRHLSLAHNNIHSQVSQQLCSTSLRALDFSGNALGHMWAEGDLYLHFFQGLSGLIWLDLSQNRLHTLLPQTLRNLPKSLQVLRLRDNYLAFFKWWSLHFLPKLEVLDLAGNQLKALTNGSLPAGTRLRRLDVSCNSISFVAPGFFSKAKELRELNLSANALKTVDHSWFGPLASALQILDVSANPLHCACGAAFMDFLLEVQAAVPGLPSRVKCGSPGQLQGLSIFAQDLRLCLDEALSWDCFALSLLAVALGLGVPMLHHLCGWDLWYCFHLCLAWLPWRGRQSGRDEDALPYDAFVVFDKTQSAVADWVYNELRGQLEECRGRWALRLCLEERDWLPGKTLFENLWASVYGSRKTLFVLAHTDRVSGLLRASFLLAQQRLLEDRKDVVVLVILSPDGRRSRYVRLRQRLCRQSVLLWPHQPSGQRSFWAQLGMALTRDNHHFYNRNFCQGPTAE
Summary of the method: as §1

[3] = target: T3, human TLR7 (Homo sapiens, UniProt Q9NYK1); test: TLR7/8/9 Inhibition Reporter Assays (TLR7); conditions: HEK-Blue cells overexpressing human TLR7, SEAP reporter, stimulated with TLR7 ligand gardiquimod
T3 construct: host or cells: HEK-Blue cells (HEK293-derived reporter line)
T3 sequence (Q9NYK1 27-1049): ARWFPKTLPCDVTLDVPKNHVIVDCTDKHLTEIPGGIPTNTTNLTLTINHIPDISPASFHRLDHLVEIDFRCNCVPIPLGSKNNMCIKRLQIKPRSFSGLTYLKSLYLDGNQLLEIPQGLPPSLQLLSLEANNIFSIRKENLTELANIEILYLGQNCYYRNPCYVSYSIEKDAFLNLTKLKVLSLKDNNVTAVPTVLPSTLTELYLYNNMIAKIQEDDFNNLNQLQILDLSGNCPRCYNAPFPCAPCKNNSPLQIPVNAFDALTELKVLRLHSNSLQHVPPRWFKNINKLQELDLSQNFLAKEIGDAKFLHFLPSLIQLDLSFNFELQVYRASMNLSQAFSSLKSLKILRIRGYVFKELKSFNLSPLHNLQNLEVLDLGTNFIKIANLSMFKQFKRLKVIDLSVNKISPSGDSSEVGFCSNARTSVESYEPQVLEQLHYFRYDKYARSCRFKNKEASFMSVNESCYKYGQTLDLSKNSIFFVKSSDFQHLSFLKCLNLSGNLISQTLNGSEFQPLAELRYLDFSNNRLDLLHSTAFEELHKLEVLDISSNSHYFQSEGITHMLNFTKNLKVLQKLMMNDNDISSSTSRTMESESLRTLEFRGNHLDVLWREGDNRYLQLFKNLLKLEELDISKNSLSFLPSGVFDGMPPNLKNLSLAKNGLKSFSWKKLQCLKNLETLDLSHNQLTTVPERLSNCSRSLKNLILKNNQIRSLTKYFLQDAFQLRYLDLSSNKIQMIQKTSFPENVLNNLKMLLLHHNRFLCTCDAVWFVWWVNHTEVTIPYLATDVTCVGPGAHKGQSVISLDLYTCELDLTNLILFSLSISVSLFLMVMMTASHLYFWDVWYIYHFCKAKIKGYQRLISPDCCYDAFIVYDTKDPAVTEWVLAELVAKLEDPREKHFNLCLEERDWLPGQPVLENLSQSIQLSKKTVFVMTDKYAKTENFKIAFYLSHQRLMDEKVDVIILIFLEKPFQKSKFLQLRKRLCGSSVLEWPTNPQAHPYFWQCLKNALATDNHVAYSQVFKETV
Summary of the method: as §1

Structure (SMILES)	IC50 [1] [nM]	IC50 [2] [nM]	IC50 [3] [nM]
CC(C)CN1C[C@@H]2CN(c3ccc(-c4cc5c(cn4)nc(-c4ccc(S(C)(=O)=O)cc4)n5C4CC4)cc3)C[C@@H]2C1 [Example 88, 1-cyclopropyl-6-(4-((3aR,6aS)-5-isobutylhexahydropyrrolo[3,4-c]pyrrol-2(1H)-yl)phenyl)-2-(4-(methylsulfonyl)phenyl)-1H-imidazo[4,5-c]pyridine]	1100	330	3400
Cc1cc(-c2nc3c(C)nc(-c4ccc(N5CCN(CC(C)C)CC5)cc4)cc3n2C)cc(C)n1 [Example 14, 2-(2,6-dimethylpyridin-4-yl)-6-(4-(4-isobutylpiperazin-1-yl)phenyl)-1,4-dimethyl-1H-imidazo[4,5-c]pyridine]	4600	380	4500
COc1cc(-c2nc3c(C)nc(-c4ccc(N5CCN(CC6CC6)CC5)cc4)cc3n2C)cn2ncnc12 [Example 11, 6-(6-(4-(4-(cyclopropylmethyl)piperazin-1-yl)phenyl)-1,4-dimethyl-1H-imidazo[4,5-c]pyridin-2-yl)-8-methoxy-[1,2,4]triazolo[1,5-a]pyridine]	> 50000	420	1100
COc1ccc(-c2nc3cnc(-c4ccc(N5C[C@H]6CN(CC(C)C)C[C@H]6C5)cc4)cc3n2C2CC2)cc1OC [Example 82, 1-cyclopropyl-2-(3,4-dimethoxyphenyl)-6-(4-((3aR,6aS)-5-isobutylhexahydropyrrolo[3,4-c]pyrrol-2(1H)-yl)phenyl)-1H-imidazo[4,5-c]pyridine]	4200	220	3800
CC(C)N1CC2(CN(c3ccc(-c4cc5c(cn4)nc(-c4ccc(S(C)(=O)=O)cc4)n5C4CC4)cc3)C2)C1 [Example 89, 1-cyclopropyl-6-(4-(6-isopropyl-2,6-diazaspiro[3.3]heptan-2-yl)phenyl)-2-(4-(methylsulfonyl)phenyl)-1H-imidazo[4,5-c]pyridine]	4500	420	1900
COc1cc(-c2nc3c(C)nc(-c4ccc(N5CCN(C(C)C)CC5)cc4)cc3n2C)cn2ncnc12 [Example 9, 6-(6-(4-(4-isopropylpiperazin-1-yl)phenyl)-1,4-dimethyl-1H-imidazo[4,5-c]pyridin-2-yl)-8-methoxy-[1,2,4]triazolo[1,5-a]pyridine]	9100	220	470
CC(C)CN1CC2(CCN(c3ccc(-c4cc5c(cn4)nc(-c4ccc(S(C)(=O)=O)cc4)n5C)cc3)C2)C1 [Example 99, 6-(4-(2-isobutyl-2,6-diazaspiro[3.4]octan-6-yl)phenyl)-1-methyl-2-(4-(methylsulfonyl)phenyl)-1H-imidazo[4,5-c]pyridine]	900	220	3100

Second part, the compound after the results:

IC50 [1] [nM]	IC50 [2] [nM]	IC50 [3] [nM]	Structure (SMILES)
> 50000	530	1100	COC1CCN(Cc2ccc(-c3ccc(-c4cc5c(nc(-c6ccc(S(C)(=O)=O)cc6)n5C)c(C)n4)cc3)nc2)CC1 [Example 50, 6-(4-(5-((4-methoxypiperidin-1-yl)methyl)pyridin-2-yl)phenyl)-1,4-dimethyl-2-(4-(methylsulfonyl)phenyl)-1H-imidazo[4,5-c]pyridine]
> 50000	440	2400	Cc1nc(-c2ccc(N3CCC(N4CCCC4)CC3)c(F)c2)cc2c1nc(-c1ccc(S(C)(=O)=O)cc1)n2C [Example 42, 6-(3-fluoro-4-(4-(pyrrolidin-1-yl)piperidin-1-yl)phenyl)-1,4-dimethyl-2-(4-(methylsulfonyl)phenyl)-1H-imidazo[4,5-c]pyridine]
46000	1100	20000	Cc1nc(-c2ccc(C3CCNCC3)cc2)cc2c1nc(-c1ccc(S(C)(=O)=O)cc1)n2C [Example 27, 1,4-dimethyl-2-(4-(methylsulfonyl)phenyl)-6-(4-(piperidin-4-yl)phenyl)-1H-imidazo[4,5-c]pyridine]
2300	290	3900	Cc1nc(-c2ccc(N3CCC(N4CCCC4)CC3)cc2F)cc2c1nc(-c1ccc(S(C)(=O)=O)cc1)n2C [Example 43, 6-(2-fluoro-4-(4-(pyrrolidin-1-yl)piperidin-1-yl)phenyl)-1,4-dimethyl-2-(4-(methylsulfonyl)phenyl)-1H-imidazo[4,5-c]pyridine]
> 50000	330	4100	CC(C)CN1CCC(N2CC=C(c3cc4c(nc(-c5ccc(S(C)(=O)=O)cc5)n4C)c(C(F)(F)F)n3)CC2)CC1 [Example 36, 6-(1-(1-isobutylpiperidin-4-yl)-1,2,3,6-tetrahydropyridin-4-yl)-1-methyl-2-(4-(methylsulfonyl)phenyl)-4-(trifluoromethyl)-1H-imidazo[4,5-c]pyridine]
